Measured values as given in patent EP4603105A1, “PHARMACEUTICAL COMPOSITION CONTAINING CYCLIC COMPOUND HAVING SELECTIVE KRAS INHIBITORY EFFECT AGAINST HRAS AND NRAS” (CHUGAI SEIYAKU KABUSHIKI KAISHA, priority 2022, dated 2024).
Read-outs that look alike come from different tables or passages of the source. Where a SMILES comes first, the peptide text is derived from it. Bridges are numbered along the chain shown (N, C = ends). [ ]: non-standard residue; d: D form. The star is where a group is joined. hPhe(3-Cl-4-CF3) = N[C@@H](CCc1ccc(C(F)(F)F)c(Cl)c1)C(=O)O; NPrPhe(4-CF3) = CCCN[C@@H](Cc1ccc(C(F)(F)F)cc1)C(=O)O; NMeGly(cPent) = CN[C@H](C(=O)O)C1CCCC1; NMeD = CN[C@@H](CC(=O)O)C(=O)O; NMeL = CN[C@@H](CC(C)C)C(=O)O; Pip = O=C(O)[C@@H]1CCCCN1; Morpholide = C1CN(*)CCO1; Ac5c = NC1(C(=O)O)CCCC1; Aze = O=C(O)[C@@H]1CCN1; Sar = CNCC(=O)O

Key:
[1] = tested on: human lung cancer strain NCI-H441; format: cell-based
Outline: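 Signal came from […] measured per well once the reagent was added. Beforehand, cells were cultured at 37°C and 5% carbon dioxide on a compound series serially diluted in dimethyl sulfoxide.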

[2] = biological target: GDP-bound NRAS wild-type protein (Homo sapiens, UniProt P01111); experiment: Binding to NRAS by surface plasmon resonance (SPR), KD and KD ratio to KRAS
Sequence of GDP-bound NRAS wild-type protein (P01111 whole entry): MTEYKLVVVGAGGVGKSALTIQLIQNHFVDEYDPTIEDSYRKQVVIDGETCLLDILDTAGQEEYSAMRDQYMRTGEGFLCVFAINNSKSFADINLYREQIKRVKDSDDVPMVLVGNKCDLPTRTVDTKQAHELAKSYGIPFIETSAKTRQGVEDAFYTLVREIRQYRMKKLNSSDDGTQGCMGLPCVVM
Outline: (§1)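 Recombinant RAS proteins bearing a biotinylated Avi tag and loaded with GDP served as the captured ligand, recaptured fresh every cycle. Binding responses were referenced to an uncoated surface and a buffer-only blank cycle. Dissociation constants were obtained by 1:1 model fitting at 30°C.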

HRAS wild-type protein = HRAS wild-type protein (Homo sapiens, UniProt P01112); experiment: Binding to HRAS by surface plasmon resonance (SPR), KD and KD ratio to KRAS
Sequence of HRAS wild-type protein (P01112 whole entry): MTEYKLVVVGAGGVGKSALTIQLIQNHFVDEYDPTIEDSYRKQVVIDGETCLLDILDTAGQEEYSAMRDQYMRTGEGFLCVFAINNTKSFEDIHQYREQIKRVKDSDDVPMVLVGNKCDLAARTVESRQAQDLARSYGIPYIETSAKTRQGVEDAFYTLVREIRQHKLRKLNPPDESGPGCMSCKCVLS
Outline: as §1

[3] = biological target: GDP-bound KRAS wild-type protein (Homo sapiens, UniProt P01116); experiment: Binding to KRAS by surface plasmon resonance (SPR), dissociation constant KD
Sequence of GDP-bound KRAS wild-type protein (P01116 1-188 isoform P01116-2): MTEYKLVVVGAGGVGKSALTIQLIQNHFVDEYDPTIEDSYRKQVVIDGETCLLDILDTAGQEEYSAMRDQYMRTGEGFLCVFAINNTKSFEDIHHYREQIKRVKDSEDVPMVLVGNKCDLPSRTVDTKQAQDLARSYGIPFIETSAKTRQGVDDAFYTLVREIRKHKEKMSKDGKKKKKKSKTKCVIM
Outline: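 SPR, 30°C: Avi-biotin RAS·GDP captured via Biotin CAPture (~100–300 RU); running buffer HBS pH 7.4, 1 mM DTT, 10 mM MgCl2, 0.01% Tween 20, 10 µM GDP, 4% DMSO. Single-cycle kinetics, 100 µL/min, 75 s injections; 1:1 model → KD.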

[4] = ratio of the KD value with respect to GDP-bound NRAS wild-type protein to the KD value with respect to KRAS
[5] = ratio of the KD value with respect to HRAS wild-type protein to the KD value with respect to KRAS
[6] = Single Cycle Kinetics, 1:1 binding model
[7] = ratio of KD for GDP-bound NRAS wild-type protein to KD for KRAS
[8] = ratio of KD for HRAS wild-type protein to KD for KRAS

IC50 [1]	Kd [3, 6]	Kd ([3]; Single Cycle Kinetics)	Kd ([3]; 1:1 binding model)	SMILES	NRAS /KRAS [2, 4]	HRAS /KRAS (HRAS wild-type protein; [5])	NRAS /KRAS [2, 7]	HRAS /KRAS (HRAS wild-type protein; [8])	IC50 ([1]; NCI-H441 cells, 4 days, CellTiter-Glo, read-out: NCl-H441 IC50)
14 nM	0.11 nM	–	–	CCCOC[C@H]1C(=O)N[C@@H]([C@@H](C)CC)C(=O)N(C)CC(=O)N(C)[C@H]2C/C=C\CCN(C2=O)[C@@H](Cc2ccc(C(F)(F)F)cc2)C(=O)N(C)CC(=O)N[C@@H](CCc2ccc(C(F)(F)F)c(OC)c2)C(=O)N2C[C@@H](C)C[C@H]2C(=O)NC2(CCC2)C(=O)N(C)[C@@H](C2CCCC2)C(=O)N(C)[C@H](C(=O)N(C)CC)CC(=O)N1C [PP2027]	A (a compound having 10 or more and less than 20 is denoted as A)	B (a compound having 3 or more and less than 10 is denoted as B)	–	–	–
4.4 nM	–	0.081 nM	–	CCO[C@@H]1C[C@H]2C(=O)NC3(CCC3)C(=O)N(C)[C@@H](C3CCCC3)C(=O)N(C)[C@H](C(=O)N3CCOCC3)CC(=O)N(C)[C@@H](CC(C)C)C(=O)N[C@@H]([C@@H](C)CC)C(=O)N(C)CC(=O)N(C)[C@H]3C[C@H]4C[C@H]4CN(C3=O)[C@@H](Cc3ccc(C(F)(F)F)cc3)C(=O)N(C)CC(=O)N[C@@H](CCc3cc(F)c(C(F)(F)F)c(F)c3)C(=O)N2C1 [PP0829]	–	–	B (a compound having 3 or more and less than 10 is denoted as B)	C (A compound having a KD ratio of 0.1 or more and less than 3 is denoted as C)	–
438 nM	–	7.5 nM	–	CC[C@H](C)[C@@H]1NC(=O)[C@H](CC(C)C)N(C)C(=O)C[C@@H](C(=O)N2CCOCC2)N(CC)C(=O)[C@H](C2CCCC2)N(C)C(=O)C2(CCC2)NC(=O)[C@@H]2CC(F)(F)CN2C(=O)[C@H](CCc2cc(F)c(C(F)(F)F)c(F)c2)NC(=O)CN(C)C(=O)[C@H](Cc2ccc(C(F)(F)F)cc2)N2CCCCC[C@@H](C2=O)N(C)C(=O)CN(C)C1=O [PP0954]	–	–	A (a compound having 10 or more and less than 20 is denoted as A)	A (a compound having 10 or more and less than 20 is denoted as A)	–
5.3 nM	–	–	0.2 nM	CCCN1C(=O)[C@@H]2CCN2C(=O)[C@@H]2CCCCN2C(=O)[C@H]([C@@H](C)CC)NC(=O)[C@H](CC(C)C)N(C)C(=O)C[C@@H](C(=O)N2CCOCC2)N(C)C(=O)[C@H](C2CCCC2)N(C)C(=O)C2(CCCC2)NC(=O)[C@@H]2CCCN2C(=O)[C@H](CCc2ccc(C(F)(F)F)c(Cl)c2)NC(=O)CN(C)C(=O)[C@@H]1Cc1ccc(C(F)(F)F)cc1 [PP0077] ([NMeL]I[Pip][Aze][NPrPhe(4-CF3)][Sar][hPhe(3-Cl-4-CF3)]P[Ac5c][NMeGly(cPent)][NMeD]-Morpholide; lactam N-11)	–	–	C (A compound having a KD ratio of 0.1 or more and less than 3 is denoted as C)	B (a compound having 3 or more and less than 10 is denoted as B)	–
150 nM	–	–	2.3 nM	CCO[C@@H]1C[C@H]2C(=O)NC3(CC(C)(C)C3)C(=O)N(C)[C@@H](C3CCCC3)C(=O)N(C)[C@H](C(=O)N(C)CC)CC(=O)N(C)[C@@H]([C@H](C)OC)C(=O)N[C@@H]([C@@H](C)CC)C(=O)N3CCC[C@H]3C(=O)N(C)[C@H]3C/C=C\CCN(C3=O)[C@@H](Cc3ccc(C)cc3)C(=O)N(C)CC(=O)N[C@@H](CCc3ccc(C(F)(F)F)c(OC)c3)C(=O)N2C1 [PP3161]	–	–	A (a compound having 10 or more and less than 20 is denoted as A)	A (a compound having 10 or more and less than 20 is denoted as A)	–
9.1 nM	0.14 nM	–	–	C#CCN1CC(=O)N(C)[C@H]2C/C=C\CCN(C2=O)[C@@H](Cc2ccc(C)cc2)C(=O)N(C)CC(=O)N[C@@H](CCc2ccc(C(F)(F)F)c(OC)c2)C(=O)N2C[C@H](OCC)C[C@H]2C(=O)NC2(CC(C)(C)C2)C(=O)N(C)[C@@H](C2CCCC2)C(=O)N(C)[C@H](C(=O)N(C)C)CC(=O)N(C)[C@@H](CCC)C(=O)N[C@@H]([C@@H](C)CC)C1=O [PP2099]	A (a compound having 10 or more and less than 20 is denoted as A)	A (a compound having 10 or more and less than 20 is denoted as A)	–	–	–
70.3 nM	0.55 nM	–	–	CCOC[C@H]1C(=O)N[C@@H]([C@@H](C)CC)C(=O)N(C2CC2)CC(=O)N(C)[C@H]2C/C=C\CCN(C2=O)[C@@H](CC2CCCCC2)C(=O)N(C)CC(=O)N[C@@H](CCc2ccc(C(F)(F)F)c(OC)c2)C(=O)N2C[C@H](OCC)C[C@H]2C(=O)N(C)C2(CCC2)C(=O)N(C)[C@@H](C2CCCC2)C(=O)N(C)[C@H](C(=O)N(C)C)CC(=O)N1C [PP2342]	A (a compound having 10 or more and less than 20 is denoted as A)	A (a compound having 10 or more and less than 20 is denoted as A)	–	–	–
220 nM	–	–	1.1 nM	C#CC[C@H]1C(=O)N[C@@H]([C@@H](C)CC)C(=O)N(C)CC(=O)N(C)[C@H]2C/C=C\CCN(C2=O)[C@@H](Cc2ccc(C(F)(F)F)cc2)C(=O)N(C)CC(=O)N[C@@H](CCc2ccc(C(F)(F)F)c(OC)c2)C(=O)N2C[C@H](C)[C@H]2C(=O)NC2(CCC2)C(=O)N(C)[C@@H](C2CCCC2)C(=O)N(C)[C@H](C(=O)N2CCOCC2)CC(=O)N1C [PP3133]	–	–	A (a compound having 10 or more and less than 20 is denoted as A)	A (a compound having 10 or more and less than 20 is denoted as A)	–
6.2 nM	0.13 nM	–	–	CCC[C@H]1C(=O)N[C@@H]([C@@H](C)CC)C(=O)N(C)CC(=O)N(C)[C@H]2C/C=C\CCN(C2=O)[C@@H](Cc2ccc(C)cc2)C(=O)N(C)CC(=O)N[C@@H](CCc2ccc(C(F)(F)F)c(Cl)c2)C(=O)N2C[C@H](C)C[C@H]2C(=O)NC2(CC(C)(C)C2)C(=O)N(C)[C@@H](C2CCCC2)C(=O)N(C)[C@H](C(=O)N(C)C)CC(=O)N1C [PP2210]	A (a compound having 10 or more and less than 20 is denoted as A)	B (a compound having 3 or more and less than 10 is denoted as B)	–	–	–
3.7 nM	–	–	0.12 nM	CC[C@H](C)[C@@H]1NC(=O)[C@@H]2CCCc3ccc(cc3)C[C@@H](C(=O)N(C)CC(=O)N[C@@H](CCc3ccc(C(F)(F)F)c(OC)c3)C(=O)N3C[C@H](OC(C)C)C[C@H]3C(=O)NC3(CC(C)(C)C3)C(=O)N(C)[C@@H](C3CCCC3)C(=O)N(C)[C@H](C(=O)N(C)CC)CC(=O)N2C)N2CC/C=C\C[C@@H](C2=O)N(C)C(=O)CN(C)C1=O [PP3084]	–	–	A (a compound having 10 or more and less than 20 is denoted as A)	B (a compound having 3 or more and less than 10 is denoted as B)	–

SMILES	IC50 [1]	Kd [3, 6]	Kd ([3]; Single Cycle Kinetics)	Kd ([3]; 1:1 binding model)	NRAS /KRAS [2, 4]	HRAS /KRAS (HRAS wild-type protein; [5])	NRAS /KRAS [2, 7]	HRAS /KRAS (HRAS wild-type protein; [8])	IC50 ([1]; NCI-H441 cells, 4 days, CellTiter-Glo, read-out: NCl-H441 IC50)
CCC(CC)[C@H]1C(=O)N(C)[C@H](C(=O)N2CCCCC2)CC(=O)N(C)[C@H]2CCC/C=C/c3ccc(cc3)C[C@@H](C(=O)N(C)CC(=O)N[C@@H](CCc3ccc(Cl)c(Cl)c3)C(=O)N3CCC[C@H]3C(=O)NC3(CC(C)(C)C3)C(=O)N1C)N1CC/C=C\C[C@@H](C1=O)N(C)C(=O)CN(C)C(=O)[C@H]([C@@H](C)CC)NC2=O [PP3055]	–	–	–	1 nM	–	–	AA (a compound having 20 or more is denoted as AA)	A (a compound having 10 or more and less than 20 is denoted as A)	69.2 nM
